Results published in patent publication US10669272B2, “Substituted naphthyridinone compounds useful as T cell activators” (BRISTOL-MYERS SQUIBB COMPANY, priority 2018, dated 2020).
Where two headings read alike, the source gives them in different places.

Key:
[1] = molecular target: T1, human DGKα (Homo sapiens, UniProt P23743); test: DGKα LIPGLO assay (extruded liposome substrate), in vitro DGK inhibition; type: biochemical; details: liposome (LIPGLO) assay; read-out: DGKa LIPGLO IC50
T1 construct: TVMV protease cleavage site (C); Hexa-His (C); made in house; host or cells: Sf9 insect cells (baculovirus, Bac-to-Bac)

[2] = molecular target: T2, human DGKζ (Homo sapiens, UniProt Q13574); test: DGKζ LIPGLO assay (extruded liposome substrate), in vitro DGK inhibition; type: biochemical; details: liposome (LIPGLO) assay; read-out: DGKz LIPGLO IC50
T2 construct: TVMV protease cleavage site (C); Hexa-His (C); made in house; host or cells: Sf9 insect cells (baculovirus, Bac-to-Bac)

[3] = tested on: naïve human CD8 T cells; test: Human CD8 T cells IFN-γ assay; type: cell-based; details: Homo sapiens, T-cell, 20 h, normalized to 3 μM reference compound with anti-CD3 plus anti-CD28 as 100% activation; read-out: HuCD8 INFG Normalized EC50;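 also: Naïve human CD8 T cells stimulated with plate-bound anti-CD3 and soluble anti-CD28, IFN-γ in supernatant quantified by AlphaLISA and converted to pg/mL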
[4] = tested on: Human venous whole blood; test: Human whole blood IFN-γ assay; type: cell-based; details: Homo sapiens, human whole blood, normalized to 3 μM reference compound with anti-CD3 plus anti-CD28 as 100% activation, read-out: INFg Whole Blood Normalized Agonist EC50;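 also: blood from healthy donors exposed to compound for 1 h before stimulation with anti-CD3 and anti-CD28 at 1 µg/mL each, IFN-γ quantified in supernatant by AlphaLISA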
Experimental: Human Whole Blood IFN-γ Assay
Human venous whole blood (22.5 μL per well), obtained from healthy donors, was pre-treated with compounds for one hour at 37° C. in a humidified 95% air/5% CO2 incubator. The blood was stimulated with 2.5 μL anti-human CD3 and anti-CD28 mAb at a final concentration of 1 μg/mL each for 24 hours at 37° C. IFN-γ in the supernatants was measured using AlphLISA kit (Cat # AL217).

T2 sequence (Q13574 with tags, fused parts or gaps isoform Q13574-4): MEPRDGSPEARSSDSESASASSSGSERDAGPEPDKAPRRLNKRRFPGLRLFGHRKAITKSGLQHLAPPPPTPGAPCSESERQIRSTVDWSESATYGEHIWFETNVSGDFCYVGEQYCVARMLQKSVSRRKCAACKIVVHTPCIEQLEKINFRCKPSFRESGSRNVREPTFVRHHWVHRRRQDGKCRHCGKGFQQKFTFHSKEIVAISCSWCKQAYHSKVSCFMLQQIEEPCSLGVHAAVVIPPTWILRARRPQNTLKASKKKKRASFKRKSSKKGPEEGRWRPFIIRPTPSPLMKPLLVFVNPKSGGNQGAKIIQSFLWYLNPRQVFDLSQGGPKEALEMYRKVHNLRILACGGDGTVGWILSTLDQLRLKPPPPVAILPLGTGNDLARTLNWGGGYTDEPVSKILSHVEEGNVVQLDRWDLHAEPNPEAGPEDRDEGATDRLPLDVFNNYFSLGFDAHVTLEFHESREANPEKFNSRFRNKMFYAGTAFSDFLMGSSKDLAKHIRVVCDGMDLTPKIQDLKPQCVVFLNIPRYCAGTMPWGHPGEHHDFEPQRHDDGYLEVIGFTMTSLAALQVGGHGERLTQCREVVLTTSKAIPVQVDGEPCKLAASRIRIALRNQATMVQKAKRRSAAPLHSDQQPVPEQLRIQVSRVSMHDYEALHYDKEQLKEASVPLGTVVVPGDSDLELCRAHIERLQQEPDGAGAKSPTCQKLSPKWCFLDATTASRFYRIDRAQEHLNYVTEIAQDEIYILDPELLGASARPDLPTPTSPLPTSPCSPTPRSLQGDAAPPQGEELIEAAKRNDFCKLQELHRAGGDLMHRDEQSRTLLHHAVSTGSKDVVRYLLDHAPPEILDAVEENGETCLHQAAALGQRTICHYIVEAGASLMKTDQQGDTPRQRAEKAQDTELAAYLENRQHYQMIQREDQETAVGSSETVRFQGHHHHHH
T1 sequence (P23743 with tags, fused parts or gaps): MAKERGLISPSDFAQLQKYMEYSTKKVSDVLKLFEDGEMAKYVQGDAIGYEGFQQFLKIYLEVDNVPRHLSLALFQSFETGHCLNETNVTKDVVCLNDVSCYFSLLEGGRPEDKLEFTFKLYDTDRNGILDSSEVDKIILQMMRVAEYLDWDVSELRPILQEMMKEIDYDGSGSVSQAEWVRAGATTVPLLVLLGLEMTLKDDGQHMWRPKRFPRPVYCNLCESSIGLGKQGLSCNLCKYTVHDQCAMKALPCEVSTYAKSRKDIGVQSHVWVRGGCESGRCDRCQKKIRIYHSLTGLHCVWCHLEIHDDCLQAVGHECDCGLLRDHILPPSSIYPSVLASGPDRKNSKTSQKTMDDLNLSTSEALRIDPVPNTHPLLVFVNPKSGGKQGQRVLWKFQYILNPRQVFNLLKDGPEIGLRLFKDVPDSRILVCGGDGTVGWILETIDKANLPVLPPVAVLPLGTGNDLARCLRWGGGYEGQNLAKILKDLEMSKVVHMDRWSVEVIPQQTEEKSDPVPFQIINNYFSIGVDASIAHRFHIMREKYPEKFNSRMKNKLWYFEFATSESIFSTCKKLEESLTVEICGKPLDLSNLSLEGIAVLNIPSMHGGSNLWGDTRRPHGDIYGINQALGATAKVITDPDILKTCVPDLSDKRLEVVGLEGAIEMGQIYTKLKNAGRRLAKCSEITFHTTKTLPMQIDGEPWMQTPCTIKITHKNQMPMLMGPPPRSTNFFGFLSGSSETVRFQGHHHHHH

| Compound | IC50 [1] [nM] | IC50 [2] [nM] | EC50 [3] [nM] | EC50 ([4]; 24 h) [nM] | EC50 [4] [nM] |
| --- | --- | --- | --- | --- | --- |
| COC(=O)C1CN(C(c2ccc(F)cc2)c2ccc(F)cc2)CCN1c1c(C#N)c(=O)n(C)c2ccc(C#N)nc12 (centres unmarked) [Example 114, Methyl 4-(bis(4-fluorophenyl)methyl)-1-(3,6-dicyano-1-methyl-2-oxo-1,2-dihydro-1,5-naphthyridin-4-yl)piperazine-2-carboxylate] | 420 | 1600 | 57 | 490 |  |
| COC(=O)C1CN(C(c2ccc(F)cc2)c2ccc(F)cc2)CCN1c1c(C#N)c(=O)n(C)c2ccc(Br)nc12 (centres unmarked) [Example 115, Methyl 4-(bis(4-fluorophenyl)methyl)-1-(6-bromo-3-cyano-1-methyl-2-oxo-1,2-dihydro-1,5-naphthyridin-4-yl)piperazine-2-carboxylate] | 1000 | 8800 | 390 | 2000 |  |
| COc1ccc2c(n1)c(N1C[C@@H](C)N(C(c3ccc(F)cc3)c3ccc(F)cc3)C[C@@H]1C)cc(=O)n2C [Example 241] | 8300 | 17000 | 1600 | 16000 |  |
| C[C@@H]1CN(c2cc(=O)n(C)c3ccc(C#N)nc23)[C@@H](C)CN1Cc1ccc(F)cc1C(F)F [Example 242, 8-[(2S,5R)-4-{[2-(difluoromethyl)-4-fluorophenyl]methyl}-2,5-dimethylpiperazin-1-yl]-5-methyl-6-oxo-5,6-dihydro-1,5-naphthyridine-2-carbonitrile] | 4400 | 970 | 170 |  | 1500 |
| C[C@@H]1CN(c2cc(=O)n(C)c3ccc(C#N)nc23)[C@@H](C)CN1Cc1ccc(OC(F)(F)F)cc1F [Example 243, 8-[(2S,5R)-4-{[2-fluoro-4-(trifluoromethoxy)phenyl]methyl}-2,5-dimethylpiperazin-1-yl]-5-methyl-6-oxo-5,6-dihydro-1,5-naphthyridine-2-carbonitrile] | 290 | 1900 | 160 | 1500 |  |
| C[C@@H]1CN(c2cc(=O)n(C)c3ccc(C#N)nc23)[C@@H](C)CN1Cc1ccc(Cl)cc1O [Example 244, 8-[(2S,5R)-4-[(4-chloro-2-hydroxyphenyl)methyl]-2,5-dimethylpiperazin-1-yl]-5-methyl-6-oxo-5,6-dihydro-1,5-naphthyridine-2-carbonitrile] | 260 | 1100 | 110 | 1700 |  |
| C[C@@H]1CN(c2cc(=O)n(C)c3ccc(C#N)nc23)[C@@H](C)CN1Cc1ccccc1O [Example 245, 8-[(2S,5R)-4-[(2-hydroxyphenyl)methyl]-2,5-dimethylpiperazin-1-yl]-5-methyl-6-oxo-5,6-dihydro-1,5-naphthyridine-2-carbonitrile] | 8.6 | 1100 | 750 | 5200 |  |
| C[C@@H]1CN(c2cc(=O)n(C)c3ccc(C#N)nc23)[C@@H](C)CN1Cc1c(F)cc(F)cc1F [Example 246, 8-[(2S,5R)-2,5-dimethyl-4-[(2,4,6-trifluorophenyl)methyl]piperazin-1-yl]-5-methyl-6-oxo-5,6-dihydro-1,5-naphthyridine-2-carbonitrile] | 120 | 460 | 27 | 550 |  |
| C[C@@H]1CN(c2cc(=O)n(C)c3ccc(C#N)nc23)[C@@H](C)CN1Cc1ccc(C#N)cc1F [Example 253, 8-[(2S,5R)-4-[(4-cyano-2-fluorophenyl)methyl]-2,5-dimethylpiperazin-1-yl]-5-methyl-6-oxo-5,6-dihydro-1,5-naphthyridine-2-carbonitrile] | 200 | 690 | 87 | 3000 |  |
| C[C@@H]1CN(c2cc(=O)n(C)c3ccc(C#N)nc23)[C@@H](C)CN1Cc1c(F)cccc1C(F)(F)F [Example 254, 8-[(2S,5R)-4-{[2-fluoro-6-(trifluoromethyl)phenyl]methyl}-2,5-dimethylpiperazin-1-yl]-5-methyl-6-oxo-5,6-dihydro-1,5-naphthyridine-2-carbonitrile] | 140 | 1600 | 210 | 2200 |  |
| Cc1cccc(F)c1CN1C[C@H](C)N(c2cc(=O)n(C)c3ccc(C#N)nc23)C[C@H]1C [Example 255, 8-[(2S,5R)-4-[(2-fluoro-6-methylphenyl)methyl]-2,5-dimethylpiperazin-1-yl]-5-methyl-6-oxo-5,6-dihydro-1,5-naphthyridine-2-carbonitrile] | 770 | 1700 | 180 | 3200 |  |
| CC(c1c(F)cccc1F)N1C[C@H](C)N(c2cc(=O)n(C)c3ccc(C#N)nc23)C[C@H]1C (stereo partly drawn) [Example 256, 8-[(2S,5R)-4-[1-(2,6-difluorophenyl)ethyl]-2,5-dimethylpiperazin-1-yl]-5-methyl-6-oxo-5,6-dihydro-1,5-naphthyridine-2-carbonitrile] | 140 | 570 | 22 |  | 650 |
| C[C@@H]1CN(c2cc(=O)n(C)c3ccc(C#N)nc23)[C@@H](C)CN1C(c1cccc(Cl)c1)c1cccc(Cl)c1 [Example 257, 8-[(2S,5R)-4-[bis(3-chlorophenyl)methyl]-2,5-dimethylpiperazin-1-yl]-5-methyl-6-oxo-5,6-dihydro-1,5-naphthyridine-2-carbonitrile] | 25000 | 830 | 810 | 6200 |  |
| C[C@@H]1CN(c2cc(=O)n(C)c3ccc(C#N)nc23)[C@@H](C)CN1C(c1ccccc1F)c1ccccc1F [Example 258, 8-[(2S,5R)-4-[bis(2-fluorophenyl)methyl]-2,5-dimethylpiperazin-1-yl]-5-methyl-6-oxo-5,6-dihydro-1,5-naphthyridine-2-carbonitrile] | 240 | 820 | 56 | 1400 |  |
| C[C@@H]1CN(c2cc(=O)n(C)c3ccc(C#N)nc23)[C@@H](C)CN1C(c1ccccc1)c1ccccc1Cl (stereo partly drawn) [Example 259, 8-[(2S,5R)-4-[(2-chlorophenyl)(phenyl)methyl]-2,5-dimethylpiperazin-1-yl]-5-methyl-6-oxo-5,6-dihydro-1,5-naphthyridine-2-carbonitrile] | 3100 | 840 | 550 | 2100 |  |
| C[C@@H]1CN(c2cc(=O)n(C)c3ccc(C#N)nc23)[C@@H](C)CN1Cc1c(Cl)cccc1C#N [Example 260, 8-[(2S,5R)-4-[(2-chloro-6-cyanophenyl)methyl]-2,5-dimethylpiperazin-1-yl]-5-methyl-6-oxo-5,6-dihydro-1,5-naphthyridine-2-carbonitrile] | 3800 | 1100 | 900 | 4400 |  |
| C[C@@H]1CN(c2cc(=O)n(C)c3ccc(C#N)nc23)[C@@H](C)CN1Cc1c(F)cccc1Cl [Example 261, 8-[(2S,5R)-4-[(2-chloro-6-fluorophenyl)methyl]-2,5-dimethylpiperazin-1-yl]-5-methyl-6-oxo-5,6-dihydro-1,5-naphthyridine-2-carbonitrile] | 390 | 1100 | 230 | 880 |  |
| C[C@@H]1CN(c2cc(=O)n(C)c3ccc(C#N)nc23)[C@@H](C)CN1Cc1cc(F)ccc1F [Example 262, 8-[(2S,5R)-4-[(2,5-difluorophenyl)methyl]-2,5-dimethylpiperazin-1-yl]-5-methyl-6-oxo-5,6-dihydro-1,5-naphthyridine-2-carbonitrile] | 640 | 2500 | 310 | 7100 |  |
| C[C@@H]1CN(c2cc(=O)n(C)c3ccc(C#N)nc23)[C@@H](C)CN1Cc1c(Cl)cccc1Cl [Example 263, 8-[(2S,5R)-4-[(2,6-dichlorophenyl)methyl]-2,5-dimethylpiperazin-1-yl]-5-methyl-6-oxo-5,6-dihydro-1,5-naphthyridine-2-carbonitrile] | 6500 | 1700 | 610 | 6300 |  |
| C[C@@H]1CN(c2cc(=O)n(C)c3ccc(C#N)nc23)[C@@H](C)CN1Cc1ccccc1 [Example 264, 8-[(2S,5R)-4-benzyl-2,5-dimethylpiperazin-1-yl]-5-methyl-6-oxo-5,6-dihydro-1,5-naphthyridine-2-carbonitrile] | 35 | 3000 | 260 | 11000 |  |
| Cc1cccc(C)c1CN1C[C@H](C)N(c2cc(=O)n(C)c3ccc(C#N)nc23)C[C@H]1C [Example 265, 8-[(2S,5R)-4-[(2,6-dimethylphenyl)methyl]-2,5-dimethylpiperazin-1-yl]-5-methyl-6-oxo-5,6-dihydro-1,5-naphthyridine-2-carbonitrile] | 23000 | 2600 | 1600 | 3800 |  |
| C[C@@H]1CN(c2cc(=O)n(C)c3ccc(C#N)nc23)[C@@H](C)CN1Cc1c(F)ccc(F)c1Cl [Example 266, 8-[(2S,5R)-4-[(2-chloro-3,6-difluorophenyl)methyl]-2,5-dimethylpiperazin-1-yl]-5-methyl-6-oxo-5,6-dihydro-1,5-naphthyridine-2-carbonitrile] | 1400 | 2100 | 1100 | 2800 |  |
| C[C@@H]1CN(c2cc(=O)n(C)c3ccc(C#N)nc23)[C@@H](C)CN1Cc1c(F)cc(Cl)cc1F [Example 268, 8-[(2S,5R)-4-[(4-chloro-2,6-difluorophenyl)methyl]-2,5-dimethylpiperazin-1-yl]-5-methyl-6-oxo-5,6-dihydro-1,5-naphthyridine-2-carbonitrile] | 230 | 1200 | 54 | 1700 |  |
